Experimental data taken from patent US11174268B2, “Benzenesulfonamide compouds and their use as therapeutic agents” (Xenon Pharmaceuticals Inc., priority 2016, dated 2021).
Counter-ions that a name gives are not always drawn. Like-named read-outs stand apart in the source and are kept apart here.

Legend:
[1] = biological target: T1, NaV1.1 (Homo sapiens (Human), UniProt P35498); test: Sodium Influx Assay (Flux), NaV1.1; format: cell-based; conditions: Trex HEK293 cells, ANG2 dye, inactivated state;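 further: channels co-expressed with human β1 subunit and held open by modulators, cells exposed to compounds for one hour at room temperature, IC50 from percent inhibition of influx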
[2] = biological target: T1, NaV1.1; test: Electrophysiological Assay (EP), patch voltage clamp, NaV1.1; format: cell-based; conditions: HEK-293 cells, whole-cell patch clamp;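 further: sodium current block measured at ambient temperature, holding at fully inactivating potential, 20 ms repolarization to −150 mV before test pulse, versus 0.5% DMSO control currents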
[3] = biological target: T2, NaV1.6 (Homo sapiens (Human), UniProt Q9UQD0); test: Electrophysiological Assay (EP), patch voltage clamp, NaV1.6; format: cell-based; conditions: HEK-293 cells, whole-cell patch clamp;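 further: sodium current recorded at ambient temperature, channels held inactivated then briefly repolarized to −150 mV for 20 ms before a test pulse, control currents in 0.5% DMSO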
T2 sequence (Q9UQD0 whole entry): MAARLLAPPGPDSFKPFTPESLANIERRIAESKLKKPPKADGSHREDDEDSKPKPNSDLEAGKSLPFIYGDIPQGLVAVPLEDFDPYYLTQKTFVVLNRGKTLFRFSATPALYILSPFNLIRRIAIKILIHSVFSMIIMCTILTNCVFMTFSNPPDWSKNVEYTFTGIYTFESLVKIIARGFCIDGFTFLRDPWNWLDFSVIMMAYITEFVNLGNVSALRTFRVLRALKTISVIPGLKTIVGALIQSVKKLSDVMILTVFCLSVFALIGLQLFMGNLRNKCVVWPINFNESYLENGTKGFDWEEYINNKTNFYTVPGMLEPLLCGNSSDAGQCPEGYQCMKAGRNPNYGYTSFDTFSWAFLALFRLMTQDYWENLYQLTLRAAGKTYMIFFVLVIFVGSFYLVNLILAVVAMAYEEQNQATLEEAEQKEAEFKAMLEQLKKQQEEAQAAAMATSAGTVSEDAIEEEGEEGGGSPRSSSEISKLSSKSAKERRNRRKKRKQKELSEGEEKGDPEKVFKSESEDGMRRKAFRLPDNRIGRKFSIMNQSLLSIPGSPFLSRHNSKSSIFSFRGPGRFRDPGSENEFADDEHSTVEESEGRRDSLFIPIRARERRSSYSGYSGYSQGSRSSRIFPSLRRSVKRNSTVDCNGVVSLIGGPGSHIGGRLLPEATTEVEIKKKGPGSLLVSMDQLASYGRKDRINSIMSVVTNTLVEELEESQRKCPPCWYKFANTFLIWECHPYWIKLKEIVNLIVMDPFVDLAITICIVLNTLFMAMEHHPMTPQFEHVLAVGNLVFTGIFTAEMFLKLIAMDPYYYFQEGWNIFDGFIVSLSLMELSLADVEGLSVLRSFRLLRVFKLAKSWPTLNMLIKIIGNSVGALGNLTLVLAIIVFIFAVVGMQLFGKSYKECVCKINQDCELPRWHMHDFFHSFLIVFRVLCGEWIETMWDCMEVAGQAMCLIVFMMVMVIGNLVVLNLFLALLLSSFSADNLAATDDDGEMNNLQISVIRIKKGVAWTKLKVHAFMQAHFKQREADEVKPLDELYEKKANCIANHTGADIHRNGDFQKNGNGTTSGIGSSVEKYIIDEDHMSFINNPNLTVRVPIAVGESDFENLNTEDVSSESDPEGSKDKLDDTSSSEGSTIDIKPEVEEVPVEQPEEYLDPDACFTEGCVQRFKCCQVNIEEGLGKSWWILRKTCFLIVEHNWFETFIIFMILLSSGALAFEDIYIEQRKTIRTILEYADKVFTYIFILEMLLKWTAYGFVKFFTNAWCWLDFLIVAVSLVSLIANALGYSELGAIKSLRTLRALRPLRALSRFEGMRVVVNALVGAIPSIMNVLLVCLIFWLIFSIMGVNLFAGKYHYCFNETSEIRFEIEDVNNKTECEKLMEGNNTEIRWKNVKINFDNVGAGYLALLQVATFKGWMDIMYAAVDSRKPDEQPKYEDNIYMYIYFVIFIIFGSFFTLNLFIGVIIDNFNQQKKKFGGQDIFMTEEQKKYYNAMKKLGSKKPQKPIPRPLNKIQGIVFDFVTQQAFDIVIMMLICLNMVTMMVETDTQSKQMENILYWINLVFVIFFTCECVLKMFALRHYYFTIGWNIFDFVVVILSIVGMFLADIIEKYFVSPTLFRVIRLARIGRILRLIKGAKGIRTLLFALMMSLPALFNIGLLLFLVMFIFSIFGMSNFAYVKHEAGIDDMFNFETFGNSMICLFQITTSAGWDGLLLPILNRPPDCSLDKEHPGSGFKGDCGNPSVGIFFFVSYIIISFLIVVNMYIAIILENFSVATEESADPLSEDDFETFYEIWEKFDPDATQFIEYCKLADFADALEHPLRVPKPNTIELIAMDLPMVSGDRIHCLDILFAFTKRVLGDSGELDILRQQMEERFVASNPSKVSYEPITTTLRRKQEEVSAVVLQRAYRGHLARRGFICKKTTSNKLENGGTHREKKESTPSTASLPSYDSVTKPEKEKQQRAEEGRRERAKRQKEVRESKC

[4] = biological target: T3, NaV1.5 (Homo sapiens (Human), UniProt Q14524); test: Electrophysiological Assay (EP), patch voltage clamp, NaV1.5; format: cell-based; conditions: HEK-293 cells, whole-cell patch clamp
T3 sequence (Q14524 other isoform, or with tags, fused parts or gaps): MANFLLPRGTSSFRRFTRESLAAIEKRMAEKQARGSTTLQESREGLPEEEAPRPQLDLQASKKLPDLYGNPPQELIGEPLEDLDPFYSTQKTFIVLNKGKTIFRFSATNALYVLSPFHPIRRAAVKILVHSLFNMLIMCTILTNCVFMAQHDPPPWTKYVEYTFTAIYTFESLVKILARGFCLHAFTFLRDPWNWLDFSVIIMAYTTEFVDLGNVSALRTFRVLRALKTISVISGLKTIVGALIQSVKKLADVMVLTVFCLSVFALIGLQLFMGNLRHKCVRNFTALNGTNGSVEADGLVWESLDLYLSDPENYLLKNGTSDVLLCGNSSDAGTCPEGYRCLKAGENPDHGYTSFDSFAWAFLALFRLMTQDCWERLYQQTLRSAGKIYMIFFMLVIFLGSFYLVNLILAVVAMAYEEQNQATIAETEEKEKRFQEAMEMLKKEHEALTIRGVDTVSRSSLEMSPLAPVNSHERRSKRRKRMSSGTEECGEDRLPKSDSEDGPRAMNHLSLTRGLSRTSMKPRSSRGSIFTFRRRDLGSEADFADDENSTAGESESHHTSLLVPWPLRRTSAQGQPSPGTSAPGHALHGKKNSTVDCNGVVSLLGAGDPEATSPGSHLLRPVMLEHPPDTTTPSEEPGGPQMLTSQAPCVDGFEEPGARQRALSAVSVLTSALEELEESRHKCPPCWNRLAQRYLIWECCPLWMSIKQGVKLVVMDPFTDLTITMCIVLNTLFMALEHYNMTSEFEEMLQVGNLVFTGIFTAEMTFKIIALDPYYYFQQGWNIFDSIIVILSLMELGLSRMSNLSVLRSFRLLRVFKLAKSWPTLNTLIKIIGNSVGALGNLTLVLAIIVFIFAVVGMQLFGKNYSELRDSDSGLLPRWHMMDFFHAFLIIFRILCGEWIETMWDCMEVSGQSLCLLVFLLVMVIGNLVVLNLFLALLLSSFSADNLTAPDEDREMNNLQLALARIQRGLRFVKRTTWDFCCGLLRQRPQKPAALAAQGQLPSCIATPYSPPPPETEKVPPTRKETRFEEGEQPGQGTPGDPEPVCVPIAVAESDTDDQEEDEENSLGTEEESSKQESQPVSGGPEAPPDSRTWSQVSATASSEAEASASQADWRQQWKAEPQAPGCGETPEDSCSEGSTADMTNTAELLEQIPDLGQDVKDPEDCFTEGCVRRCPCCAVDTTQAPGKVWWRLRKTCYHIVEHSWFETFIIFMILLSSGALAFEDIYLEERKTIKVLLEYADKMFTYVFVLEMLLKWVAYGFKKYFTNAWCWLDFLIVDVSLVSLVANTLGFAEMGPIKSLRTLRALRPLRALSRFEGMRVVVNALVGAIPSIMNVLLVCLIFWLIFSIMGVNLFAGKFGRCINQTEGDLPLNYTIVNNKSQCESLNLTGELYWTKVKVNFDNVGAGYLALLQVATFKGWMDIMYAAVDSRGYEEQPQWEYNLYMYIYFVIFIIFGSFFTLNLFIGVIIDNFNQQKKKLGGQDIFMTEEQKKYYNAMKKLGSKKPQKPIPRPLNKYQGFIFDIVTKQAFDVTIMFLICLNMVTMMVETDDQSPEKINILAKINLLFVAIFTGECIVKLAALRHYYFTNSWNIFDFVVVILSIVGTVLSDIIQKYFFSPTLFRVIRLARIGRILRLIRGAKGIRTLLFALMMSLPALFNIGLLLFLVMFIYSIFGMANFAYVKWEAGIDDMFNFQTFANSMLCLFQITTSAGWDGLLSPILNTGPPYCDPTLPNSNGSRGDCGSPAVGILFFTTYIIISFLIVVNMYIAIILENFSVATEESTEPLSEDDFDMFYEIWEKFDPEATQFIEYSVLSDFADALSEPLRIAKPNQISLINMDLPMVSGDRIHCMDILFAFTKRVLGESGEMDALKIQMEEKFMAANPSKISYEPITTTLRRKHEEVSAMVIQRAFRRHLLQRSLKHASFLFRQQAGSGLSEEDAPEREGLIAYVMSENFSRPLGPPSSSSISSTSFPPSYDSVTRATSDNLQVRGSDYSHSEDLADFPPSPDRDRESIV

[5] = biological target: T3, NaV1.5; test: Sodium Influx Assay (Flux), NaV1.5
[6] = biological target: T2, NaV1.6; test: Sodium Influx Assay (Flux), NaV1.6; format: cell-based; conditions: Trex HEK293 cells, ANG2 dye, inactivated state;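 further: Tetracycline-induced cells, compounds applied for one hour at room temperature with modulators holding channels open, IC50 from percent inhibition of sodium influx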
[7] = biological target: T3, NaV1.5
[8] = read-out: Flux NaV1.5 IC50, Trex HEK293 cells, ANG2 dye, inactivated state

Row | Compound | IC50 [1] | IC50 [2] | IC50 [3] | IC50 [4] | IC50 [5, 8] | IC50 [6] | IC50 [5] | IC50 [7]
1 | C[C@H](Nc1cc(F)c(S(=O)(=O)Nc2cscn2)cc1Cl)c1cc(Cl)ccc1F [Example 5, (S)-5-chloro-4-((1-(5-chloro-2-fluorophenyl)ethyl)amino)-2-fluoro-N-(thiazol-4-yl)benzenesulfonamide] | 4.83 µM | 10 µM | 0.152 µM | 10 µM | 5.31 µM | 0.785 µM | – | –
2 | C[C@H](Nc1cc(F)c(S(=O)(=O)Nc2nccs2)cc1Cl)c1ccccc1F [Example 45, (S)-5-chloro-2-fluoro-4-((1-(2-fluorophenyl)ethyl)amino)-N-(thiazol-2-yl)benzenesulfonamide] | 1.18 µM | 0.539 µM | 0.013 µM | 5.15 µM | 6.26 µM | 0.108 µM | – | –
3 | O=S(=O)(Nc1nccs1)c1cc(Cl)c(NCc2cccc3ccncc23)cc1F [Example 61, 5-chloro-2-fluoro-4-((isoquinolin-8-ylmethyl)amino)-N-(thiazol-2-yl)benzenesulfonamide] | 1.13 µM | 0.283 µM | 0.004 µM | 10 µM | 8.91 µM | 0.021 µM | – | –
4 | C[C@H](Oc1cc(F)c(S(=O)(=O)Nc2nccs2)cc1Cl)c1ccccc1F [Example 116, (S)-5-chloro-2-fluoro-4-(1-(2-fluorophenyl)ethoxy)-N-(thiazol-2-yl)benzenesulfonamide] | 5.78 µM | 9.89 µM | 0.037 µM | 14.3 µM | 4.58 µM | 0.477 µM | – | –
5 | CCC(Nc1ccc(S(=O)(=O)Nc2ncns2)cc1Cl)c1ccccc1 (centres unmarked) [Example 139, 3-chloro-4-(1-phenylpropylamino)-N-(1,2,4-thiadiazol-5-yl)benzenesulfonamide] | 1.29 µM | – | 0.038 µM | ≥ 30 µM | – | 0.107 µM | 12.9 µM | –
6 | C[C@H]1CCCN1Cc1cccc(F)c1CNc1cc(F)c(S(=O)(=O)Nc2cscn2)c(F)c1 [Example 158, (S)-2,6-difluoro-4-((2-fluoro-6-((2-methylpyrrolidin-1-yl)methyl)benzyl)amino)-N-(thiazol-4-yl)benzenesulfonamide formate] | 30 µM | – | – | – | – | 0.126 µM | – | 30 µM
7 | CN(Cc1cccc(F)c1CNc1cc(F)c(S(=O)(=O)Nc2cscn2)c(F)c1)CC1CC1 [Example 187, 4-((2-(((cyclopropylmethyl)(methyl)amino)methyl)-6-fluorobenzyl)amino)-2,6-difluoro-N-(thiazol-4-yl)benzenesulfonamide formate] | 12.4 µM | – | – | – | – | 0.065 µM | – | 30 µM
8 | C[C@H](Nc1ccc(S(=O)(=O)Nc2cscn2)c(F)c1Cl)c1cc(Cl)ccc1F [Example 190, (S)-3-chloro-4-((1-(5-chloro-2-fluorophenyl)ethyl)amino)-2-fluoro-N-(thiazol-4-yl)benzenesulfonamide] | 13.4 µM | 9.71 µM | 0.055 µM | 30 µM | 25.8 µM | 0.571 µM | – | –
9 | CC1(C)CCN1Cc1c(F)cccc1CNc1cc(F)c(S(=O)(=O)Nc2cscn2)c(F)c1 [Example 198, 4-((2-((2,2-dimethylazetidin-1-yl)methyl)-3-fluorobenzyl)amino)-2,6-difluoro-N-(thiazol-4-yl)benzenesulfonamide formate] | 25.8 µM | – | – | – | – | 0.391 µM | – | 30 µM
10 | C[C@H](Nc1cc(F)c(S(=O)(=O)Nc2cscn2)cc1Cl)c1cc(CCN2CCC2)ccc1F [Example 257, (S)-4-((1-(5-(2-(azetidin-1-yl)ethyl)-2-fluorophenyl)ethyl)amino)-5-chloro-2-fluoro-N-(thiazol-4-yl)benzenesulfonamide formate] | 6.1 µM | – | – | – | – | 0.49 µM | – | 8.39 µM
11 | O=S(=O)(Nc1cscn1)c1c(F)cc(NCc2ccccc2CN2CCC2)cc1F [Example 272, 4-((2-(azetidin-1-ylmethyl)benzyl)amino)-2,6-difluoro-N-(thiazol-4-yl)benzenesulfonamide formate] | 20.7 µM | 10 µM | 0.031 µM | 30 µM | 30 µM | 0.163 µM | – | –
12 | CC[C@H](Nc1cc(F)c(S(=O)(=O)Nc2ccncn2)cc1Cl)c1ccccc1Cl [Example 277, (S)-5-chloro-4-((1-(2-chlorophenyl)propyl)amino)-2-fluoro-N-(pyrimidin-4-yl)benzenesulfonamide 2,2,2-trifluoroacetate] | 3.77 µM | 5.59 µM | 0.043 µM | 10 µM | 9.39 µM | 0.38 µM | – | –
13 | O=S(=O)(Nc1cscn1)c1c(F)cc(NCc2c(F)ccc(F)c2CN2CCC2)cc1F [Example 283, 4-((2-(azetidin-1-ylmethyl)-3,6-difluorobenzyl)amino)-2,6-difluoro-N-(thiazol-4-yl)benzenesulfonamide] | 14.9 µM | 14.5 µM | 0.011 µM | 30 µM | 28 µM | 0.126 µM | – | –
14 | O=S(=O)(Nc1cscn1)c1cc(Cl)c(NCc2c(F)ccc(F)c2CO)cc1F [Example 293, 5-Chloro-4-((3,6-difluoro-2-(hydroxymethyl)benzyl)amino)-2-fluoro-N-(thiazol-4-yl)benzenesulfonamide] | 12.7 µM | 10 µM | 0.202 µM | – | 30 µM | 0.426 µM | – | –
15 | O=S(=O)(Nc1cscn1)c1c(F)cc(NCc2c(Cl)cccc2CN2CC3(COC3)C2)cc1F [Example 295, 4-((2-((2-oxa-6-azaspiro[3.3]heptan-6-yl)methyl)-6-chlorobenzyl)amino)-2,6-difluoro-N-(thiazol-4-yl)benzenesulfonamide formate] | 12.1 µM | 10 µM | 0.042 µM | – | 30 µM | 0.383 µM | – | –
16 | CC[C@H](Nc1cc(F)c(S(=O)(=O)Nc2cccc(F)n2)cc1Cl)c1ccccc1F [Example 316, (S)-5-chloro-2-fluoro-4-((1-(2-fluorophenyl)propyl)amino)-N-(6-fluoropyridin-2-yl)benzenesulfonamide] | 2.5 µM | 5.65 µM | 0.264 µM | – | 5.86 µM | 0.961 µM | – | –
17 | CN1CC(Oc2cccc(F)c2CNc2cc(F)c(S(=O)(=O)Nc3cscn3)c(F)c2)C1 [Example 326, 2,6-difluoro-4-((2-fluoro-6-((1-methylazetidin-3-yl)oxy)benzyl)amino)-N-(thiazol-4-yl)benzenesulfonamide formate] | 7.86 µM | 10 µM | 0.09 µM | – | 12.7 µM | 0.125 µM | – | –
18 | O=S(=O)(Nc1cccnn1)c1c(F)cc(NCc2c(F)cccc2CN2CCC2)cc1F [Example 333, 4-((2-(azetidin-1-ylmethyl)-6-fluorobenzyl)amino)-2,6-difluoro-N-(pyridazin-3-yl)benzenesulfonamide formate] | 30 µM | 10 µM | 0.186 µM | – | 30 µM | 0.257 µM | – | –
19 | O=S(=O)(Nc1cscn1)c1cc(Cl)c(N[C@H](c2cc(F)ccc2F)C(F)F)cc1F [Example 335, (R)-5-chloro-4-((1-(2,5-difluorophenyl)-2,2-difluoroethyl)amino)-2-fluoro-N-(thiazol-4-yl)benzenesulfonamide] | 4.79 µM | 10 µM | 0.085 µM | – | 21.2 µM | 0.385 µM | – | –
